We go through 1 compound from patent publication US20100009348A1, “Methods and Constructs for Analyzing Biological Activities of Biological Specimens and Determining States of Organism” (ATTAGENE, INC., priority 2005, published 2010).

The nature of this assay: STZ-induced type I diabetes in rats, blood glucose concentration. It is filed as in vivo, rat. To be noted: Sprague-Dawley male rats, single intra-peritoneal injection of 70 mg/kg STZ, seven days following the injection, tail vein blood. The text has this:
Experimental type I diabetes mellitus was induced in rats by using Streptozotocin (STZ), a N-nitroso derivative of D-glucosamine. Streptozotocin causes rapid necrosis in pancreatic β-cells of islets of Langerhans (Okamoto, 1985, Bioessays 2:15-21). STZ has been widely used to provoke insulin-dependent diabetes conditions in various laboratory animals, and animals treated with STZ are recognized in the art as a model of diabetes mellitus (Like and Rossini, 1976, Science 193:415-417).
The design of the approach to compare sera from diabetic and healthy rats is illustrated in FIG. 4. Sprague-Dawley male rats aged 10-12 weeks were randomly allocated in two groups. Rats from one group received a single intra-peritonial injection of 70 mg/kg STZ (Sigma-Aldrich, St. Louis, Mo., USA) dissolved in freshly prepared 50 mM citrate buffer (pH, 4.0). Animals in control group received an equivalent volume of the citrate buffer. Seven days following the injection, blood samples were derived from a tail vein of the control and STZ treated animals. Development of the diabetic conditions in STZ treated animals was confirmed by blood glucose concentration measurements.

For the compound `CN(N=O)C(=O)N[C@H]1C(O)O[C@H](CO)[C@@H](O)[C@@H]1O` (mixture of isomers) [STZ, Streptozotocin], the “blood glucose levels (hyperglycemia)” value was “at least 300 mg/dl”.
